Where two headings read alike, the source gives them in different places.
Tests used:
[1] = target: T1, α-glucosidase from baker's yeast (Saccharomyces cerevisiae, UniProt P53341); assay: In vitro α-glucosidase inhibition assay (PNPG substrate, absorbance at 405 nm); format: biochemical
Experimental: In this assay, α-glucosidase from baker’s yeast has been selected and used in this model according to the procedure described in the previous study with a slight modification. The activity of α-glucosidase was determined by monitoring p-nitrophenol (PNP) released from p-nitrophenol-α-D-glycopyranoside (PNPG) at 405 nm. All examined samples of UA analogues were dissolved in DMSO to generate the stock solution, with the concentrations ranging from 5 μM to 4000 μM. During the enzyme inhibitory assay, each sample’s stock solution was diluted with 0.1 M phosphate buffer solution (pH = 6.8), and the final concentration of enzyme solution was 0.1 U/mL. Then 10 min pre-incubation at 37 °C was conducted. After that, the substrate (PNPG, 1 mmol/L) was added to initiate the reaction. The reaction was incubated for 30 min at 37 °C before it was terminated by adding 1 mol/L Na2CO3 solution, and the optical density value was measured at 405 nm by using a Multimodel Plate Reader (Infinite 200). Each assay was performed three times.
The enzyme activity was measured at a fixed substrate concentration, in which a series of sample concentrations were introduced. The IC50 value was […] relative to a control assay with no inhibitor added.
The α-glucosidase inhibition assay was performed according to the method of Worawalai[32] with a slight modification. The α-glucosidase enzyme (0.1 U/mL) and substrate (1 mM p-nitrophenyl-α-D-glucopyranoside) were dissolved in 0.1 M phosphate buffer, pH 6.8. 10 μL of each synthesized analogue (1 mg/mL in DMSO) was pre-incubated with 8 μL of α-glucosidase at 37 °C for 10 min. A 100 μL of substrate solution was then added to the reaction mixture, which was further incubated at 37 °C for 30 min. Then, the reaction was terminated by adding 100 μL of 1 M Na2CO3 solution. Enzymatic activity was quantified by measuring the absorbance at 405 nm with a use of a Multimodel Plate Reader (Infinite 200). The percentage of inhibition was calculated by using [(A0 − A1)/A0] × 100%, where A0 was the absorbance without the sample, and A1 was the absorbance with the sample. The IC50 value was determined from a plot of the percentage of inhibition versus the sample concentration.

[2] = target: T1, α-glucosidase from baker's yeast; design: method as in PMID 26406581; conditions: UA hydroxyl group oxidized into ketone; cited from earlier work
[3] = UA-O and analogues UA-O-a~UA-O-j (Table 2), enzyme 0.1 U/mL, PNPG 1 mM, pH 6.8, 37 °C, mean ± SD, read-out: IC50

T1 sequence (P53341 whole entry): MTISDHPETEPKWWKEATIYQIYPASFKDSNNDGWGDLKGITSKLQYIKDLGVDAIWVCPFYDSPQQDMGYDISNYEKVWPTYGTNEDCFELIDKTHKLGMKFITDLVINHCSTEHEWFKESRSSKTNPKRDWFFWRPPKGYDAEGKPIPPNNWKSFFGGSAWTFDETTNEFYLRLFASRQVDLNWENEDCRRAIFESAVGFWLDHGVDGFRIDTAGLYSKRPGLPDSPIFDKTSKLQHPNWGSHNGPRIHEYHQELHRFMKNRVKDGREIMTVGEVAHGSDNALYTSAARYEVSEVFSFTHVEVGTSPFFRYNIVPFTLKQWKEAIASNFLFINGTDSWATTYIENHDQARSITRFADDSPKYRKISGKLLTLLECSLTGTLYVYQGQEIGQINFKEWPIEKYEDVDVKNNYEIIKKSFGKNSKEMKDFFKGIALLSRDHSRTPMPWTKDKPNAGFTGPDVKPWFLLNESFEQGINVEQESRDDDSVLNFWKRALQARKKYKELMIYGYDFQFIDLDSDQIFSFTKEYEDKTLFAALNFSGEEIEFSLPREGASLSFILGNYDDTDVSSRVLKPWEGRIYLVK

Molecule: C[C@@H]1CC[C@]2(C(=O)O)CC[C@]3(C)C(=CCC4[C@@]5(C)CC[C@H](O)C(C)(C)C5CC[C@]43C)C2[C@H]1C (stereo partly drawn) [UA, (1S,2R,4aS,6aS,6bR,10S,12aR) -10-hydroxy-1,2,6a,6b,9,9,12a-heptamethyl-1,2,3,4,4a,5,6,6a,6b,7,8,8a,9,10,11,12,12a,12b,13,14b-icosahydropicene-4a-carboxylic acid, reference compound]
- IC50 [1]: 5.08 ± 0.7 µM

Molecule: C[C@@H]1CC[C@]2(C(=O)O)CC[C@]3(C)C(=CCC4[C@@]5(C)CC[C@H](OC(=O)c6ccccc6)C(C)(C)C5CC[C@]43C)C2[C@H]1C (stereo partly drawn) [UA-01]
- IC50 [1]: 4.98 ± 0.21 µM

Molecule: C[C@@H]1CC[C@]2(C(=O)O)CC[C@]3(C)C(=CCC4[C@@]5(C)CC[C@H](OC(=O)c6ccco6)C(C)(C)C5CC[C@]43C)C2[C@H]1C (stereo partly drawn) [UA-02]
- IC50 [1]: 2.51 ± 0.02 µM

Molecule: C[C@@H]1CC[C@]2(C(=O)O)CC[C@]3(C)C(=CCC4[C@@]5(C)CC[C@H](OC(=O)C(Cl)Cl)C(C)(C)C5CC[C@]43C)C2[C@H]1C (stereo partly drawn) [UA-03]
- IC50 [1]: 6.72 ± 0.33 µM

Molecule: C[C@@H]1CC[C@]2(C(=O)O)CC[C@]3(C)C(=CCC4[C@@]5(C)CC[C@H](OC(=O)c6ccc(Br)cc6F)C(C)(C)C5CC[C@]43C)C2[C@H]1C (stereo partly drawn) [UA-04]
- IC50 [1]: 3.94 ± 0.1 µM

Molecule: C[C@@H]1CC[C@]2(C(=O)O)CC[C@]3(C)C(=CCC4[C@@]5(C)CCC(=O)C(C)(C)C5CC[C@]43C)C2[C@H]1C (stereo partly drawn) [UA-O]
- IC50 [1, 3]: 2.47 ± 0.14 µM
- IC50 [2]: 2.47 ± 0.14 µM

Molecule: (1S,2R,4R,6aS,6bR,10S,12aR)-1,2,6a,6b,9,9,12a-heptamethyl-10-((4-methylpiperazine-1-carbonyl) oxy)-1,2,3,4,4a,5,6,6a,6b,7,8,8a,9,10,11,12,12a,12b,13,14b-icosahydropicene-4-carboxylic acid [UA-05]
- IC50 ([1]; UA ester derivatives (Table 1), enzyme 0.1 U/mL, PNPG 1 mM, pH 6.8, 37 °C, mean ± SD, read-out: IC50): 15.2 ± 0.47 µM

Molecule: (1S,2R,4R,6aS,6bR,12aR)-1,2,6a,6b,9,9,12a-heptamethyl-10-oxo-11-((Z)-4-(trifluoromethyl) benzylidene)-1,2,3,4,4a,5,6,6a,6b,7,8,8a,9,10,11,12,12a,12b,13,14b-icosahydropicene-4-carboxylic acid [UA-O-i]
- IC50 [1, 3]: 0.71 ± 0.04 µM

Molecule: (1S,2R,4R,6aS,6bR,12aR)-1,2,6a,6b,9,9,12a-heptamethyl-11-((Z)-4-methylbenzylidene)-10-oxo-1,2,3,4,4a,5,6,6a,6b,7,8,8a,9,10,11,12,12a,12b,13,14b-icosahydropicene-4-carboxylic acid [UA-O-j]
- IC50 [1, 3]: 1.27 ± 0.2 µM

Molecule: (1S,2R,4R,6aS,6bR,12aR)-1,2,6a,6b,9,9,12a-heptamethyl-11-((Z)-4-nitrobenzylidene)-10-oxo-1,2,3,4,4a,5,6,6a,6b,7,8,8a,9,10,11,12,12a,12b,13,14b-icosahydropicene-4-carboxylic acid [UA-O-d]
- IC50 [1, 3]: 1.49 ± 0.14 µM

Molecule: (1S,2R,4R,6aS,6bR,12aR)-11-((Z)-3-chlorobenzylidene)-1,2,6a,6b,9,9,12a-heptamethyl-10-oxo-1,2,3,4,4a,5,6,6a,6b,7,8,8a,9,10,11,12,12a,12b,13,14b-icosahydropicene-4-carboxylic acid [UA-O-e]
- IC50 [1, 3]: 3.22 ± 0.78 µM

Molecule: (1S,2R,4R,6aS,6bR,12aR)-11-((Z)-benzylidene)-1,2,6a,6b,9,9,12a-heptamethyl-10-oxo-1,2,3,4,4a,5,6,6a,6b,7,8,8a,9,10,11,12,12a,12b,13,14b-icosahydropicene-4-carboxylic acid [UA-O-a]
- IC50 [1, 3]: 1.17 ± 0.09 µM

Molecule: (1S,2R,4R,6aS,6bR,12aR,Z)-1,2,6a,6b,9,9,12a-heptamethyl-10-oxo-11-((6-(trifluoromethyl) pyridin-3-yl) methylene)-1,2,3,4,4a,5,6,6a,6b,7,8,8a,9,10,11,12,12a,12b,13,14b-icosahydropicene-4-carboxylic acid [UA-O-f]
- IC50 [1, 3]: 4.87 ± 0.41 µM

Molecule: (1S,2R,4R,6aS,6bR,12aR,Z)-1,2,6a,6b,9,9,12a-heptamethyl-10-oxo-11-((E) -3-phenylallylidene)-1,2,3,4,4a,5,6,6a,6b,7,8,8a,9,10,11,12,12a,12b,13,14b-icosahydropicene-4-carboxylic acid [UA-O-b]
- IC50 [1, 3]: 10.3 ± 0.55 µM

Molecule: (1S,2R,4R,6aS,6bR,12aR,Z)-1,2,6a,6b,9,9,12a-heptamethyl-10-oxo-11-(pyrazin-2-ylmethylene)-1,2,3,4,4a,5,6,6a,6b,7,8,8a,9,10,11,12,12a,12b,13,14b-icosahydropicene-4-carboxylic acid [UA-O-g]
- IC50 [1, 3]: 7.87 ± 0.34 µM

Molecule: (1S,2R,4R,6aS,6bR,12aR,Z)-1,2,6a,6b,9,9,12a-heptamethyl-10-oxo-11-(thiazol-2-ylmethylene)-1,2,3,4,4a,5,6,6a,6b,7,8,8a,9,10,11,12,12a,12b,13,14b-icosahydropicene-4-carboxylic acid [UA-O-h]
- IC50 [1, 3]: 3.32 ± 0.17 µM

Molecule: (1S,2R,4R,6aS,6bR,12aR,Z)-11-((E)-3-(4-fluorophenyl) allylidene)-1,2,6a,6b,9,9,12a-heptamethyl-10-oxo-1,2,3,4,4a,5,6,6a,6b,7,8,8a,9,10,11,12,12a,12b,13,14b-icosahydropicene-4-carboxylic acid [UA-O-c]
- IC50 [1, 3]: 7.49 ± 0.29 µM
